# Calls of active or inactive are those of the source.
# Key:
# [1] = target: Glutathione-S-transferase (Schistosoma japonicum, UniProt Q26513); assay: biotin-GST/anti-GST TR-FRET signal inhibitors, dose response, artefact control for Vif-APOBEC3G degradation inhibitor project, biochemical (AID 1117362); type: functional
# Protein skinhead-1 = target: T1, Protein skinhead-1 (Caenorhabditis elegans, UniProt P34707); type: functional
# T1 sequence (P34707 whole entry): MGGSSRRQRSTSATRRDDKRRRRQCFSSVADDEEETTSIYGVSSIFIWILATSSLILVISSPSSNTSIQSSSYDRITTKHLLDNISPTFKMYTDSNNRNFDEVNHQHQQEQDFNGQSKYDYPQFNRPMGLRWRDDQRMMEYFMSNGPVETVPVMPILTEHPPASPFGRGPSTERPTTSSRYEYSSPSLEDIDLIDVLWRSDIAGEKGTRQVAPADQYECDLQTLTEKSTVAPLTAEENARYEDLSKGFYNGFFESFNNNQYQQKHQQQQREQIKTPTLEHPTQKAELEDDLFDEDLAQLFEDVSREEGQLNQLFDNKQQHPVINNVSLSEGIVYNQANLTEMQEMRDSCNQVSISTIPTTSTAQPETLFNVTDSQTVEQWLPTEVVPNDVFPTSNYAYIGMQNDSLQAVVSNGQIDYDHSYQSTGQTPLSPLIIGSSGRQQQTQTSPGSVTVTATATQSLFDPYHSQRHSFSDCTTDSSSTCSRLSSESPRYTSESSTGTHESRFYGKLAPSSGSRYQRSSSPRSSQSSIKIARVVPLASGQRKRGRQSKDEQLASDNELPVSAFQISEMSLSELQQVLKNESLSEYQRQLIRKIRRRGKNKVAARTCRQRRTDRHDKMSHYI
# 14-3-3 protein gamma = target: T2, 14-3-3 protein gamma (Homo sapiens, UniProt P61981); assay: modulators of 14-3-3 gamma client binding – dose response (AID 711); type: functional
# T2 sequence (P61981 whole entry): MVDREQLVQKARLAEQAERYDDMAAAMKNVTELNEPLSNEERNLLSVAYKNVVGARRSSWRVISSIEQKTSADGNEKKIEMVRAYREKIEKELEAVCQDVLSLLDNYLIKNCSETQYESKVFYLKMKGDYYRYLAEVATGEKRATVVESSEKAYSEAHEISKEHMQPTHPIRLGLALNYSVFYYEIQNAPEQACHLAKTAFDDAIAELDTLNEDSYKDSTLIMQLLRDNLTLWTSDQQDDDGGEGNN
# [2] = target: FAD-linked sulfhydryl oxidase ALR (Homo sapiens, UniProt P55789); assay: inhibitors of human ALR sulfhydryl oxidase, dose response, biochemical, H2O2 detection, luminescence, cherry-pick (AID 493248)
# Sequence of FAD-linked sulfhydryl oxidase ALR (P55789 whole entry): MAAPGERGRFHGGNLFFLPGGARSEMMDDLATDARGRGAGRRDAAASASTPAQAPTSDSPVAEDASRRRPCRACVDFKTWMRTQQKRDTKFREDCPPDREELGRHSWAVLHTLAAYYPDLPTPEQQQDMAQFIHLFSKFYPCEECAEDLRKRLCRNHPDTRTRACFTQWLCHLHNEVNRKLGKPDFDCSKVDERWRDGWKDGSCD
# [3] = target: T3, Heat shock factor protein 1 (Mus musculus, UniProt P38532); assay: inhibition of MG132-induced HSE-luciferase signal, confirmation, cell-based, NIH3T3, luminescence, dose retest (AID 2382); type: functional;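 also: NIH3T3 fibroblasts with HSF1-driven luciferase reporter stressed by proteasome inhibitor MG132; luminescence from HSF1-driven luciferase expression after 8 hours of MG132 stress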
# T3 sequence (P38532 whole entry): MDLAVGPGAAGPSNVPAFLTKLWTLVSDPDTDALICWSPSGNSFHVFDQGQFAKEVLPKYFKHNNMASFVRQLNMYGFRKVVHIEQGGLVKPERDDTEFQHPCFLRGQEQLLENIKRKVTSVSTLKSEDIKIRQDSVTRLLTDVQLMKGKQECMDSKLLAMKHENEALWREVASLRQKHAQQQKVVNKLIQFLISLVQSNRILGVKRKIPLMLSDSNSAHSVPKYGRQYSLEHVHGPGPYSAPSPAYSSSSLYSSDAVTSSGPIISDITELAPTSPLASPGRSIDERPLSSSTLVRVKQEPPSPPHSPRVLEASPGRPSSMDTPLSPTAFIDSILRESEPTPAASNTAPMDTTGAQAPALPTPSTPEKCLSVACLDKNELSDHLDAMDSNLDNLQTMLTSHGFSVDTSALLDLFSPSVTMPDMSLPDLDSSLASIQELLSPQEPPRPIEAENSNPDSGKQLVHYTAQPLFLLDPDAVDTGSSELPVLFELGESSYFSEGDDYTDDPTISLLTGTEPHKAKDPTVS
# [4] = target: NAD-dependent protein deacylase sirtuin-5, mitochondrial (Homo sapiens, UniProt Q9NXA8); assay: SIRT5 desuccinylase inhibitors, dose response, biochemical, fluorescence imaging, cherry-pick, set 5 (AID 720591);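 also: desuccinylation of succinyl peptide AMC substrate read as fluorescence after trypsin release; potency of inhibitors that lower fluorescence and may act on trypsin instead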
# Sequence of NAD-dependent protein deacylase sirtuin-5, mitochondrial (Q9NXA8 whole entry): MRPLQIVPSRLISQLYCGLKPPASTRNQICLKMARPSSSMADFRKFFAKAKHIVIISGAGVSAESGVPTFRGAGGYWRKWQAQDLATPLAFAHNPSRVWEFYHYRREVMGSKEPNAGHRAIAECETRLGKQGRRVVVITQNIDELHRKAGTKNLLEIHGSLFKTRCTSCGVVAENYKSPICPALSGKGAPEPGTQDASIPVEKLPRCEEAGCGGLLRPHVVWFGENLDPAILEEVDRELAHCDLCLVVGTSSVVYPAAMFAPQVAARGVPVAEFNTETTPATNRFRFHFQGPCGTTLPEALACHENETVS
# [5] = CellTiter-Glo luminescent dose response of DLD-1 viability loss (AID 1117352); type: functional
# [6] = HCT116 cell viability decrease, GSK3B pretreatment – CellTiter-Glo, IC50, dose response (AID 1117339); type: functional; settings: HCT-116
# [7] = Concentration-dependent survival of SW480 colon cancer line, luminescence detection with CellTiter-Glo, half-maximal inhibitory concentration (AID 1117338); type: functional
# [8] = cytotoxicity toward Colo320 cells – cell-based, CellTiter-Glo luminescence, IC50, dose response (AID 1117334); type: functional; settings: COLO 320
# [9] = SNU-C1 cell viability reduction, dose response, CellTiter-Glo luminescence (AID 1117323); type: functional, cell-based
# [10] = RKO cell viability reduction, dose response, CellTiter-Glo luminescence (AID 1117322); type: functional
# [11] = cytotoxicity toward HT-29 cells – cell-based, CellTiter-Glo luminescence, IC50, dose response (AID 1117330); type: functional
# [12] = cytotoxicity toward HCT116 cells – cell-based, CellTiter-Glo luminescence, IC50, dose response (AID 1117332); type: functional; settings: HCT-116
# [13] = CTGF mRNA reduction under YAP1 overexpression, dose response, mechanism study for YAP1 pathway inhibitor project, DLD1 cells, RT-qPCR, cherry-pick (AID 1053127); type: functional, cell-based; settings: DLD-1
# [14] = HepG2 cell cytotoxicity, dose response, cytotoxicity control, ATP luminescence, dry powder, set 2 (AID 743129); type: functional, cell-based
# Cryptococcus neoformans = assay: PubChem AID 686997; type: functional, organism-based
# [15] = HEK293T cell cytotoxicity, dose response, cytotoxicity control, CellTiter-Glo luminescence, dry powder, set 2 (AID 720595); type: functional, cell-based; settings: HEK293
# [16] = HepG2 hepatoma cell cytotoxicity, dose response, cytotoxicity control, CellTiter-Glo luminescence, dry powder, set 3 (AID 720594); type: functional, cell-based
# [17] = HeLa cell cytotoxicity, dose response, cytotoxicity control, CellTiter-Glo luminescence, dry powder, set 2 (AID 720593); type: functional, cell-based
# [18] = target: T4, Oxysterols receptor LXR-beta (Homo sapiens, UniProt P55055); assay: LXR agonists, Gal4 luciferase reporter, dose response, counter-screen for ssDAF-12 agonist project, cell-based, luminescence, HEK293, S. stercoralis campaign (AID 720737); type: functional; settings: read-out: IC50 (the source's name)
# T4 sequence (P55055 whole entry): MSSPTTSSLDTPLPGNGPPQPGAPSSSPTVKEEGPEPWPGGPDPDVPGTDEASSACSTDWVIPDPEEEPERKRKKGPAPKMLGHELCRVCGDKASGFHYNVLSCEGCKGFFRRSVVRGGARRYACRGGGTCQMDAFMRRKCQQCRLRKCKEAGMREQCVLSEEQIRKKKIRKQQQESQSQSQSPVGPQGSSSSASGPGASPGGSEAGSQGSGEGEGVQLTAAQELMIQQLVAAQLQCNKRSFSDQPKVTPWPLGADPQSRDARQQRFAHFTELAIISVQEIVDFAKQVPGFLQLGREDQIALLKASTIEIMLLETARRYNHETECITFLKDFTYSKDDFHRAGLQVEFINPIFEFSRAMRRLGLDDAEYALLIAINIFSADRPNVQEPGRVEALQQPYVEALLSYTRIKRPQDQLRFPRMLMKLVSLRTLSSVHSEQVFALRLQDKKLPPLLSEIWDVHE
# [19] = Luminescence-based cell-based high throughput dose response assay to identify activators of the DAF-12 from the parasite S. stercoralis (ssDAF-12).; type: functional
# [20] = TB: CFU replicating Measured in Microorganism System Using Imaging - 7108-05_Inhibitor_Dose_DryPowder_Activity_Set2.; type: functional
# Transthyretin = Transthyretin (Homo sapiens, UniProt P02766); assay: Luminescence-based cell-based high throughput dose response assay to identify activators of Transthyretin (TTR) transcription.; type: functional
# [21] = target: T5, Sentrin-specific protease 1 (Homo sapiens, UniProt Q9P0U3); assay: Dose response confirmation of small molecule inhibitors of the catalytic domain of the SUMO protease, SENP1 in a FRET assay.; type: functional; settings: read-out: IC50_Mean
# T5 sequence (Q9P0U3 whole entry, the tested form may be a part): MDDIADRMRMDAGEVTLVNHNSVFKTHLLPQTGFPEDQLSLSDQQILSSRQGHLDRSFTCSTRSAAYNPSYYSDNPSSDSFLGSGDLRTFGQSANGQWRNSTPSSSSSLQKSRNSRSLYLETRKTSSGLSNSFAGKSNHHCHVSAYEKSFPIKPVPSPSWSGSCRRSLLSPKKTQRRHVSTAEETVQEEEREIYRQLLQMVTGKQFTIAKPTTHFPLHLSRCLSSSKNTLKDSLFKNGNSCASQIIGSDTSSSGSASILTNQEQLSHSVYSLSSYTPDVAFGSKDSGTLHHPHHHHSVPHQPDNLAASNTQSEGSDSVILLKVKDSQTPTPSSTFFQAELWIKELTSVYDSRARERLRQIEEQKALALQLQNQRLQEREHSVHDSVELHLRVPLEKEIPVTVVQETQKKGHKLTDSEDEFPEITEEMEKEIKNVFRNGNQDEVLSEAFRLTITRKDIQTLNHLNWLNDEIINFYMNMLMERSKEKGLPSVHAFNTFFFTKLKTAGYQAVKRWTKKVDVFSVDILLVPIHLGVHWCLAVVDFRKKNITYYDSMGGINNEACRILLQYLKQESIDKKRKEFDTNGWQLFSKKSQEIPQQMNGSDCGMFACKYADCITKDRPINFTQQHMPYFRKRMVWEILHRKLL
# [22] = target: T6, Rac GTPase-activating protein 1 (Homo sapiens, UniProt Q9H0H5); assay: MgcRacGAP GTPase-activating activity inhibitors, confirmation, biochemical, ADP Hunter fluorescence, primary and confirmatory (AID 624330); type: functional
# T6 sequence (Q9H0H5 whole entry): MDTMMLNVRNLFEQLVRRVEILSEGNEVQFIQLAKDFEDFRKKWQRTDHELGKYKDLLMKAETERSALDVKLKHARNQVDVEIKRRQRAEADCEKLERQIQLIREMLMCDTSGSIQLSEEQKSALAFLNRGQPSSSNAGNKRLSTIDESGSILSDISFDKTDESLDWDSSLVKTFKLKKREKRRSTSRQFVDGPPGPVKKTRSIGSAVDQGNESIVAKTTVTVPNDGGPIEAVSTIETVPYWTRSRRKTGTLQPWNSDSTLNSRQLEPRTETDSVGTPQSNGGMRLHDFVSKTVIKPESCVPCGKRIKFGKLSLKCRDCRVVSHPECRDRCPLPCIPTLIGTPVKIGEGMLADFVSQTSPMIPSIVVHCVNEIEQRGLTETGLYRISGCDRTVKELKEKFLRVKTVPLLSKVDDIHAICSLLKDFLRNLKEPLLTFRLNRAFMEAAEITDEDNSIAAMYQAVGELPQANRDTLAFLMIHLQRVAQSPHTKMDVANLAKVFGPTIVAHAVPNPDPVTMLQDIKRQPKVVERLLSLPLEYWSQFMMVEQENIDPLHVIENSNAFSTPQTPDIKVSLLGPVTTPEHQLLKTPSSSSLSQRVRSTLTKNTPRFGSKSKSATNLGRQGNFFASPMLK
# [23] = target: T7, DNA repair protein RAD52 homolog (Homo sapiens, UniProt P43351); type: functional, biochemical
# T7 sequence (P43351 whole entry): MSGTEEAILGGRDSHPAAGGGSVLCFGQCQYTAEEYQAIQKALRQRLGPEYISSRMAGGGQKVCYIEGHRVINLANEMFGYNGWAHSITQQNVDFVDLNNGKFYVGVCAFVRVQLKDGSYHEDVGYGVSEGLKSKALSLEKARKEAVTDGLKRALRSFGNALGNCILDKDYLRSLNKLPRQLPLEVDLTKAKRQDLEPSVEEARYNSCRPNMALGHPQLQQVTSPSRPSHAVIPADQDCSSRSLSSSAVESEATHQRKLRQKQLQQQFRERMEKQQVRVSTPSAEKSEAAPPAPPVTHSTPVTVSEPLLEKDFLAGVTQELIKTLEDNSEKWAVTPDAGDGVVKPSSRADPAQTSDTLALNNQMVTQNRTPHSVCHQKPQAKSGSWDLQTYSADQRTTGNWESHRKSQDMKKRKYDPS
# [24] = target: Dual specificity tyrosine-phosphorylation-regulated kinase 1A (Rattus norvegicus, UniProt Q63470); type: biochemical, Homo sapiens
# [25] = target: T5, Sentrin-specific protease 1; assay: potency of human SENP1 inhibitors, dose response, biochemical, kinetic FRET (AID 651697); type: functional; settings: read-out: IC50_Mean
# [26] = HeLa cell cytotoxicity, dose response, cytotoxicity control for MgcRacGAP inhibitor project (AID 624300); type: functional
# Sequence of Glutathione-S-transferase (Q26513 whole entry): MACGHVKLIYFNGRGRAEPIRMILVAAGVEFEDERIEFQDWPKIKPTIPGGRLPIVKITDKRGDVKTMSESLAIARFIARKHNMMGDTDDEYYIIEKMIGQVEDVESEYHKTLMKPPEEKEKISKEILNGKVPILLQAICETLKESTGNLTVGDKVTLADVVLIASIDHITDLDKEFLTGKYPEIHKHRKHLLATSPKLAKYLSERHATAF
smiles,measurement,setting,value
NC(=O)c1cc(N)ccc1N1CCCC1,IC50,[1],12.9 µM (active)
same,IC50,Protein skinhead-1,> 100 µM (inactive)
same,IC50,14-3-3 protein gamma,18.1 µM (active)
same,AC50,[2],4.01 µM (active)
O=C(Cn1nc(-c2ccc(Cl)cc2)ccc1=O)NCC1CCCO1 (stereo not given),EC50,[3],> 195 µM (not active)
same,AC50,[4],> 30 µM (inactive)
CCCCCCCCCCCCCCCCCC[N+](C)(C)CCC[Si](OC)(OC)OC,IC50,[5],> 20 µM (inactive)
same,IC50,[6],> 20 µM (inactive)
same,IC50,[7],> 20 µM (inactive)
same,IC50,[8],> 20 µM (inactive)
same,IC50,[9],> 20 µM (inactive)
same,IC50,[10],> 20 µM (inactive)
same,IC50,[11],> 20 µM (inactive)
same,IC50,[12],> 20 µM (inactive)
C[C@@H]1CN([C@@H](C)CO)C(=O)CCCn2nncc2CO[C@@H]1CN(C)C(=O)c1cc(-c2ccccc2)on1,AC50,[13],> 26 µM (inactive)
COC(=O)C1=C(C)N(Cc2ccc(F)cc2)C(=S)NC1c1cccc(F)c1 (stereo not given),AC50,[14],> 52 µM (inactive)
same,AC50,Cryptococcus neoformans,36.7 µM (active)
CCn1nc(-c2cccnc2)nc2c(=O)n(C)c(=O)nc1-2,AC50,[15],16.4 µM (active)
same,AC50,[16],3.24 µM (active)
same,AC50,[17],4.34 µM (active)
COC(=O)[C@]12C=CCN1[C@H](c1ccc(OC)c(OC)c1)c1c(c3ccccc3n1S(=O)(=O)c1ccc(C)cc1)C2,EC50,[18],> 67.5 µM (inactive)
same,IC50,[19],> 67.5 µM (inactive)
Cn1c(NC(=O)c2ccccc2)nc2c3cccnc3ccc21,AbsAC90,[20],141.12 µM
CN(C)CCNc1ccc(CO)c2oc3ccc(O)cc3c(=O)c12,EC50,Transthyretin,> 167 µM (inactive)
same,IC50,[21],21.6 µM (inactive)
same,IC50,[22],128 µM (active)
same,AC50,[23],2.51 µM (active)
same,AC50,[24],8.03 µM (active)
same,IC50,[25],14.1 µM (active)
same,CC50,[26],50.8 µM (active)
